{
  "source": "patent US20250213579A1",
  "about": "“COMBINATION THERAPIES” (MIRATI THERAPEUTICS, INC., priority 2018, published 2025)",
  "system": "H2122 cells",
  "conditions": "H2122 tumors, nude/nude mice, Compound 478 100 mg/kg and/or Dasatinib 50 mg/kg p.o. daily",
  "note": "Read-outs that look alike come from different tables or passages of the source.",
  "method": "Immunocompromised nude/nude mice were inoculated in the right hind flank with cells or patient derived tumor samples harboring a KRas G12C mutation. When tumor volumes reached between 200-400 mm^3 in size, the mice were divided into four groups of 5-12 mice each. The first group was administered vehicle only. […] The fourth group was administered the single agent dose of the KRas G12C inhibitor in combination with the single agent dose of the Src-family kinase inhibitor. […] Tumor volumes were measured using a caliper every two-three days and tumor volumes were calculated by the formula: 0.5×(Length×Width)^2.\nTumor volumes were measured at pre-specified days set forth below.",
  "data": [
    {"smiles": "Cc1nc(Nc2ncc(C(=O)Nc3c(C)cccc3Cl)s2)cc(N2CCN(CCO)CC2)n1", "note": "[Dasatinib, N-(2-chloro-6-methylphenyl)-2-((6-(4-(2-hydroxyethyl)piperazin-1-yl)-2-methylpyrimidin-4-yl)amino)thiazole-5-carboxamide]", "values": [
      {"measurement": "Average Tumor Volumes", "setting": "Day 11 from inoculation (start of dosing)", "result": 324, "unit": "mm^3"},
      {"measurement": "Average Tumor Volumes", "setting": "Day 13 from inoculation", "result": 492, "unit": "mm^3"},
      {"measurement": "Average Tumor Volumes", "setting": "Day 15 from inoculation", "result": 596, "unit": "mm^3"},
      {"measurement": "Average Tumor Volumes", "setting": "Day 18 from inoculation", "result": 820, "unit": "mm^3"},
      {"measurement": "tumor growth inhibition", "setting": "Day 20 (Treatment Day 9)", "result": 23.5, "unit": "%"},
      {"measurement": "Average Tumor Volumes", "setting": "Day 20 from inoculation", "result": 938, "unit": "mm^3"},
      {"measurement": "Average Tumor Volumes", "setting": "Day 22 from inoculation", "result": 1086, "unit": "mm^3"},
      {"measurement": "Average Tumor Volumes", "setting": "Day 25 from inoculation", "result": 1216, "unit": "mm^3"}
    ]}
  ]
}
